According to ChEMBL document CHEMBL1201861, “Genomics of Drug Sensitity in Cancer screening data, Wellcome Trust Sanger Institute”:

Key:
Experiment in all cases: cells
TE-15 = format: functional, cell-based, Homo sapiens; conditions: Homo sapiens, TE-15;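 further: cell viability readout of growth inhibition in TE-15 cells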
Description: SANGER: Inhibition of human TE-15 cell growth in a cell viability assay.

NCI-H716 = format: functional, cell-based, Homo sapiens; conditions: Homo sapiens, NCI-H716;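 further: growth inhibition of human NCI-H716 cells, measured by a cell viability assay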
Description: SANGER: Inhibition of human NCI-H716 cell growth in a cell viability assay.

D-392MG = format: functional, cell-based; conditions: Homo sapiens
SiHa = format: functional, cell-based; conditions: Homo sapiens;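 further: Viability-based readout of growth inhibition in SiHa cells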
Description: SANGER: Inhibition of human SiHa cell growth in a cell viability assay.

SCC-25 = format: functional, cell-based; conditions: Homo sapiens;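 further: growth inhibition of SCC-25 cells, measured with a cell viability assay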
Description: SANGER: Inhibition of human SCC-25 cell growth in a cell viability assay.

GDM-1 = format: functional, cell-based, Homo sapiens; conditions: Homo sapiens, GDM-1; read-out: IC50;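 further: cell viability readout used to measure growth inhibition of human GDM-1 cells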
Description: SANGER: Inhibition of human GDM-1 cell growth in a cell viability assay.

CHP-212 = format: functional, cell-based; conditions: Homo sapiens
Description: SANGER: Inhibition of human CHP-212 cell growth in a cell viability assay.

SW948 = format: functional, cell-based; conditions: Homo sapiens;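 further: growth inhibition of SW948 cells, read out with a cell viability assay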
Description: SANGER: Inhibition of human SW948 cell growth in a cell viability assay.

MDA-MB-157 = format: functional, cell-based; conditions: Homo sapiens
Description: SANGER: Inhibition of human MDA-MB-157 cell growth in a cell viability assay.

HSC-3 = format: functional, cell-based; conditions: Homo sapiens
Description: SANGER: Inhibition of human HSC-3 cell growth in a cell viability assay.

IGR-1 = format: functional, cell-based; conditions: Homo sapiens;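 further: growth inhibition of human IGR-1 cells, read out with a cell viability assay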
Description: SANGER: Inhibition of human IGR-1 cell growth in a cell viability assay.

S-117 = format: functional, cell-based; conditions: Homo sapiens
Description: SANGER: Inhibition of human S-117 cell growth in a cell viability assay.

RO82-W-1 = format: functional, cell-based; conditions: Homo sapiens;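 further: growth inhibition of human RO82-W-1 cells, measured with a cell viability assay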
Description: SANGER: Inhibition of human RO82-W-1 cell growth in a cell viability assay.

KYSE-180 = format: functional, cell-based; conditions: Homo sapiens;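 further: growth inhibition of KYSE-180 cells, read out with a cell viability assay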
Description: SANGER: Inhibition of human KYSE-180 cell growth in a cell viability assay.

A2780 = format: functional, cell-based; conditions: Homo sapiens;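 further: growth inhibition of A2780 cells, read out with a cell viability assay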
Description: SANGER: Inhibition of human A2780 cell growth in a cell viability assay.

CAL-54 = format: functional, cell-based; conditions: Homo sapiens;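 further: growth inhibition of CAL-54 cells, read out by a viability measurement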
Description: SANGER: Inhibition of human CAL-54 cell growth in a cell viability assay.

LU-165 = format: functional, cell-based, Homo sapiens; conditions: Homo sapiens, LU-165
Description: SANGER: Inhibition of human LU-165 cell growth in a cell viability assay.

GCT = format: functional, cell-based; conditions: Homo sapiens;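 further: GCT cell line proliferation inhibition, read out with a cell viability assay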
Description: SANGER: Inhibition of human GCT cell growth in a cell viability assay.

SIG-M5 = format: functional, cell-based, Homo sapiens; conditions: Homo sapiens, SIG-M5;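 further: cell viability assay read-out, measuring how strongly growth of cultured human SIG-M5 cells is inhibited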
Description: SANGER: Inhibition of human SIG-M5 cell growth in a cell viability assay.

BPH-1 = format: functional, cell-based; conditions: Homo sapiens;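 further: cell viability assay measuring growth inhibition of human BPH-1 cells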
Description: SANGER: Inhibition of human BPH-1 cell growth in a cell viability assay.

SNU-16 = format: functional, cell-based, Homo sapiens; conditions: Homo sapiens, SNU-16;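 further: growth inhibition of human SNU-16 cells, determined with a cell viability readout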
Description: SANGER: Inhibition of human NCI-SNU-16 cell growth in a cell viability assay.

COLO-792 = format: functional, cell-based; conditions: Homo sapiens
Description: SANGER: Inhibition of human COLO-792 cell growth in a cell viability assay.

UO-31 = format: functional, cell-based; conditions: Homo sapiens;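 further: cell viability assay measuring inhibition of cell growth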
Description: SANGER: Inhibition of human U031 cell growth in a cell viability assay.

P12-Ichikawa = format: functional, cell-based; conditions: Homo sapiens
SW13 = format: functional, cell-based; conditions: Homo sapiens;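 further: IC50 is inhibition of SW13 cell growth, read out with a cell viability assay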
Description: SANGER: Inhibition of human SW13 cell growth in a cell viability assay.

MKN-45 = format: functional, cell-based; conditions: Homo sapiens;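 further: growth inhibition of human MKN-45 cells, measured with a cell viability assay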
Description: SANGER: Inhibition of human MKN45 cell growth in a cell viability assay.

DBTRG-05MG = format: functional, cell-based; conditions: Homo sapiens;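 further: cell viability assay measuring growth inhibition of human DBTRG-05MG cells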
Description: SANGER: Inhibition of human DBTRG-05MG cell growth in a cell viability assay.

SCC-3 = format: functional, cell-based, Homo sapiens; conditions: Homo sapiens, SCC-3;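 further: cell viability assay measuring inhibition of SCC-3 cell growth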
Description: SANGER: Inhibition of human SCC-3 cell growth in a cell viability assay.

OVCAR-3 = format: functional, cell-based; conditions: Homo sapiens;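 further: growth inhibition of human OVCAR-3 cells, determined by a cell viability assay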
Description: SANGER: Inhibition of human OVCAR-3 cell growth in a cell viability assay.

HuO-3N1 = format: functional, cell-based; conditions: Homo sapiens;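 further: cell viability readout used to measure how strongly compounds suppress proliferation of human HuO-3N1 cells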
Description: SANGER: Inhibition of human HuO-3N1 cell growth in a cell viability assay.

NCI-H2122 = format: functional, cell-based; conditions: Homo sapiens;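 further: growth inhibition of the cells, read out with a cell viability assay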
Description: SANGER: Inhibition of human NCI-H2122 cell growth in a cell viability assay.

786-0 = format: functional, cell-based; conditions: Homo sapiens
Description: SANGER: Inhibition of human 786-0 cell growth in a cell viability assay.

AU565 = format: functional, cell-based; conditions: Homo sapiens;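 further: cell viability assay measuring growth inhibition of human AU565 cells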
Description: SANGER: Inhibition of human AU565 cell growth in a cell viability assay.

P31-FUJ = format: functional, cell-based, Homo sapiens; conditions: Homo sapiens, P31-FUJ;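 further: growth inhibition of P31-FUJ cells, read out with a viability assay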
Description: SANGER: Inhibition of human P31-FUJ cell growth in a cell viability assay.

MIA PaCa-2 = format: functional, cell-based; conditions: Homo sapiens;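 further: growth inhibition of MIA PaCa-2 cells, read out with a cell viability assay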
Description: SANGER: Inhibition of human MIA-PaCa-2 cell growth in a cell viability assay.

NCI-H292 = format: functional, cell-based; conditions: Homo sapiens;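 further: growth inhibition of NCI-H292 cells, read out with a cell viability assay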
Description: SANGER: Inhibition of human NCI-H292 cell growth in a cell viability assay.

SUP-T1 = format: functional, cell-based, Homo sapiens; conditions: Homo sapiens, SUP-T1;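 further: growth inhibition of human SUP-T1 cells, read out as cell viability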
Description: SANGER: Inhibition of human SUP-T1 cell growth in a cell viability assay.

TALL-1 = format: functional, cell-based, Homo sapiens; conditions: Homo sapiens, TALL-1;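 further: growth inhibition of cultured human TALL-1 cells, read out by a cell viability assay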
Description: SANGER: Inhibition of human TALL-1 cell growth in a cell viability assay.

JIYOYE = format: functional, cell-based, Homo sapiens; conditions: Homo sapiens, JIYOYE
Description: SANGER: Inhibition of human JiyoyeP-2003 cell growth in a cell viability assay.

UACC-62 = format: functional, cell-based; conditions: Homo sapiens;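 further: growth inhibition of human UACC-62 cells, read out by a cell viability assay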
Description: SANGER: Inhibition of human UACC-62 cell growth in a cell viability assay.

UMC-11 = format: functional, cell-based; conditions: Homo sapiens;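 further: growth inhibition of UMC-11 cells, read out with a cell viability assay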
Description: SANGER: Inhibition of human UMC-11 cell growth in a cell viability assay.

RPMI-6666 = format: functional, cell-based, Homo sapiens; conditions: Homo sapiens, RPMI-6666
Description: SANGER: Inhibition of human RPMI-6666 cell growth in a cell viability assay.

SK-MEL-24 = format: functional, cell-based; conditions: Homo sapiens;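 further: growth inhibition read out by a cell viability assay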
Description: SANGER: Inhibition of human SK-MEL-24 cell growth in a cell viability assay.

MDA-MB-415 = format: functional, cell-based; conditions: Homo sapiens
CAL-148 = format: functional, cell-based, Homo sapiens; conditions: Homo sapiens, CAL-148
Description: SANGER: Inhibition of human CAL-148 cell growth in a cell viability assay.

ECC4 = format: functional, cell-based, Homo sapiens; conditions: Homo sapiens, ECC4;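 further: growth inhibition of ECC4 cells, read out with a cell viability assay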
Description: SANGER: Inhibition of human ECC4 cell growth in a cell viability assay.

KU-19-19 = format: functional, cell-based; conditions: Homo sapiens
Description: SANGER: Inhibition of human KU-19-19 cell growth in a cell viability assay.

MHH-ES-1 = format: functional, cell-based; conditions: Homo sapiens;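 further: cell growth inhibition measured by a cell viability assay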
Description: SANGER: Inhibition of human MHH-ES-1 cell growth in a cell viability assay.

TE-441-T = format: functional, cell-based, Homo sapiens; conditions: Homo sapiens, TE-441-T
Description: SANGER: Inhibition of human TE-441-T cell growth in a cell viability assay.

HCC1569 = format: functional, cell-based; conditions: Homo sapiens;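 further: growth inhibition of human HCC1569 cells, read out with a cell viability assay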
Description: SANGER: Inhibition of human HCC1569 cell growth in a cell viability assay.

NCI-H520 = format: functional, cell-based; conditions: Homo sapiens;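 further: growth inhibition of NCI-H520 cells, measured by a cell viability assay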
Description: SANGER: Inhibition of human NCI-H520 cell growth in a cell viability assay.

SW1990 = format: functional, cell-based; conditions: Homo sapiens;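 further: cell growth inhibition determined with a viability assay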
Description: SANGER: Inhibition of human SW1990 cell growth in a cell viability assay.

HCC1599 = format: functional, cell-based, Homo sapiens; conditions: Homo sapiens, HCC1599;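 further: growth inhibition of HCC1599 cells, read out in a cell viability assay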
Description: SANGER: Inhibition of human HCC1599 cell growth in a cell viability assay.

CAL-85-1 = format: functional, cell-based; conditions: Homo sapiens;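 further: growth inhibition of human CAL-85-1 cells, read out with a cell viability assay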
Description: SANGER: Inhibition of human CAL-85-1 cell growth in a cell viability assay.

NCI-H2347 = format: functional, cell-based; conditions: Homo sapiens;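 further: growth inhibition of the cell line, read out with a cell viability assay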
Description: SANGER: Inhibition of human NCI-H2347 cell growth in a cell viability assay.

H4 = format: functional, cell-based; conditions: Homo sapiens
Description: SANGER: Inhibition of human H4 cell growth in a cell viability assay.

KYSE-450 = format: functional, cell-based; conditions: Homo sapiens;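 further: cell growth inhibition measured by a viability assay in human KYSE-450 cells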
Description: SANGER: Inhibition of human KYSE-450 cell growth in a cell viability assay.

C/C(=C\c1csc(C)n1)[C@@H]1C[C@@H]2O[C@]2(C)CCC[C@H](C)[C@H](O)[C@@H](C)C(=O)C(C)(C)[C@@H](O)CC(=O)O1 [PATUPILONE]
IC50 (TE-15): 0.000225 µM | IC50 (NCI-H716): > 0.032 µM | IC50 (D-392MG): > 0.032 µM | IC50 (SiHa): > 0.032 µM | IC50 (SCC-25): 0.00122 µM | IC50 (GDM-1): 0.00431 µM | IC50 (CHP-212): 0.00583 µM | IC50 (SW948): 0.0178 µM | IC50 (MDA-MB-157): > 0.032 µM | IC50 (HSC-3): 0.000786 µM | IC50 (IGR-1): 0.000863 µM | IC50 (S-117): > 0.032 µM | IC50 (RO82-W-1): > 0.032 µM | IC50 (KYSE-180): 0.000601 µM | IC50 (A2780): 0.00209 µM | IC50 (CAL-54): > 0.032 µM | IC50 (LU-165): > 0.032 µM | IC50 (GCT): 0.00661 µM | IC50 (SIG-M5): 0.000169 µM | IC50 (BPH-1): 0.000521 µM | IC50 (SNU-16): 0.031 µM | IC50 (COLO-792): > 0.032 µM | IC50 (UO-31): 0.00312 µM | IC50 (P12-Ichikawa): 0.011 µM | IC50 (SW13): 0.00501 µM | IC50 (MKN-45): 0.00438 µM | IC50 (DBTRG-05MG): 0.00586 µM | IC50 (SCC-3): > 0.032 µM | IC50 (OVCAR-3): 0.00413 µM | IC50 (HuO-3N1): > 0.032 µM | IC50 (NCI-H2122): 0.00041 µM | IC50 (786-0): 0.00011 µM | IC50 (AU565): 0.0041 µM | IC50 (P31-FUJ): > 0.032 µM | IC50 (MIA PaCa-2): 0.00131 µM | IC50 (NCI-H292): 0.00142 µM | IC50 (SUP-T1): > 0.032 µM | IC50 (TALL-1): > 0.032 µM | IC50 (JIYOYE): 0.00781 µM | IC50 (UACC-62): > 0.032 µM | IC50 (UMC-11): > 0.032 µM | IC50 (RPMI-6666): 0.0015 µM | IC50 (SK-MEL-24): > 0.032 µM | IC50 (MDA-MB-415): 0.02 µM | IC50 (CAL-148): 0.00626 µM | IC50 (ECC4): > 0.032 µM | IC50 (KU-19-19): > 0.032 µM | IC50 (MHH-ES-1): 0.000893 µM | IC50 (TE-441-T): 0.0263 µM | IC50 (HCC1569): 0.0128 µM | IC50 (NCI-H520): 0.00295 µM | IC50 (SW1990): > 0.032 µM | IC50 (HCC1599): 0.0119 µM | IC50 (CAL-85-1): 0.000662 µM | IC50 (NCI-H2347): > 0.032 µM | IC50 (H4): 0.000975 µM | IC50 (KYSE-450): 0.000267 µM

COc1ccc(-c2cc3nccn3c(Nc3ncccc3C(N)=O)n2)cc1OC
IC50 (TE-15): 1.28 µM | IC50 (NCI-H716): > 8 µM | IC50 (D-392MG): > 8 µM | IC50 (SiHa): > 8 µM | IC50 (SCC-25): > 8 µM | IC50 (GDM-1): 0.683 µM | IC50 (CHP-212): 6.45 µM | IC50 (SW948): > 8 µM | IC50 (MDA-MB-157): > 8 µM | IC50 (HSC-3): > 8 µM | IC50 (IGR-1): 6.54 µM | IC50 (S-117): > 8 µM | IC50 (RO82-W-1): > 8 µM | IC50 (KYSE-180): 5.62 µM | IC50 (A2780): 1.53 µM | IC50 (CAL-54): > 8 µM | IC50 (LU-165): 7.97 µM | IC50 (GCT): 0.799 µM | IC50 (SIG-M5): 0.848 µM | IC50 (BPH-1): 1.99 µM | IC50 (SNU-16): > 8 µM | IC50 (COLO-792): > 8 µM | IC50 (UO-31): 6.71 µM | IC50 (P12-Ichikawa): 4.37 µM | IC50 (SW13): > 8 µM | IC50 (MKN-45): > 8 µM | IC50 (DBTRG-05MG): > 8 µM | IC50 (SCC-3): 7.5 µM | IC50 (OVCAR-3): > 8 µM | IC50 (HuO-3N1): > 8 µM | IC50 (NCI-H2122): 1.28 µM | IC50 (786-0): 1.36 µM | IC50 (AU565): 7.15 µM | IC50 (P31-FUJ): > 8 µM | IC50 (MIA PaCa-2): 5.4 µM | IC50 (NCI-H292): > 8 µM | IC50 (SUP-T1): 2.1 µM | IC50 (TALL-1): > 8 µM | IC50 (JIYOYE): 1.55 µM | IC50 (UACC-62): > 8 µM | IC50 (UMC-11): > 8 µM | IC50 (RPMI-6666): 1.44 µM | IC50 (SK-MEL-24): > 8 µM | IC50 (MDA-MB-415): > 8 µM | IC50 (CAL-148): > 8 µM | IC50 (ECC4): > 8 µM | IC50 (KU-19-19): > 8 µM | IC50 (MHH-ES-1): > 8 µM | IC50 (TE-441-T): 3.96 µM | IC50 (HCC1569): > 8 µM | IC50 (NCI-H520): > 8 µM | IC50 (SW1990): > 8 µM | IC50 (HCC1599): 2.69 µM | IC50 (CAL-85-1): 3.33 µM | IC50 (NCI-H2347): > 8 µM | IC50 (H4): > 8 µM | IC50 (KYSE-450): 2.32 µM

CCCCCCCCCCCC1=C(O)C(=O)C=C(O)C1=O [EMBELIN]
IC50 (TE-15): 7.24 µM | IC50 (NCI-H716): > 32 µM | IC50 (D-392MG): 16.6 µM | IC50 (SiHa): > 32 µM | IC50 (SCC-25): > 32 µM | IC50 (GDM-1): 28 µM | IC50 (CHP-212): 3.12 µM | IC50 (SW948): > 32 µM | IC50 (MDA-MB-157): 6.88 µM | IC50 (HSC-3): 23.9 µM | IC50 (IGR-1): 5.38 µM | IC50 (S-117): 3.63 µM | IC50 (RO82-W-1): > 32 µM | IC50 (KYSE-180): 7.58 µM | IC50 (A2780): 13.2 µM | IC50 (CAL-54): 20.4 µM | IC50 (LU-165): > 32 µM | IC50 (GCT): > 32 µM | IC50 (SIG-M5): 1.31 µM | IC50 (BPH-1): > 32 µM | IC50 (SNU-16): > 32 µM | IC50 (COLO-792): > 32 µM | IC50 (UO-31): 19.1 µM | IC50 (P12-Ichikawa): 9.45 µM | IC50 (SW13): 12.6 µM | IC50 (MKN-45): 7.98 µM | IC50 (DBTRG-05MG): 15.4 µM | IC50 (SCC-3): > 32 µM | IC50 (OVCAR-3): 23.6 µM | IC50 (HuO-3N1): > 32 µM | IC50 (NCI-H2122): 2.81 µM | IC50 (786-0): 8.64 µM | IC50 (AU565): 9.91 µM | IC50 (P31-FUJ): > 32 µM | IC50 (MIA PaCa-2): 4.7 µM | IC50 (NCI-H292): 29.4 µM | IC50 (SUP-T1): 7.32 µM | IC50 (TALL-1): > 32 µM | IC50 (JIYOYE): 6.94 µM | IC50 (UACC-62): 1.75 µM | IC50 (UMC-11): > 32 µM | IC50 (RPMI-6666): 8.67 µM | IC50 (SK-MEL-24): 4.67 µM | IC50 (MDA-MB-415): 30 µM | IC50 (CAL-148): > 32 µM | IC50 (ECC4): 23.8 µM | IC50 (KU-19-19): > 32 µM | IC50 (MHH-ES-1): 15.8 µM | IC50 (TE-441-T): > 32 µM | IC50 (HCC1569): 10.3 µM | IC50 (NCI-H520): 13.2 µM | IC50 (SW1990): 6.49 µM | IC50 (HCC1599): 9.04 µM | IC50 (CAL-85-1): 7.81 µM | IC50 (NCI-H2347): 7.48 µM | IC50 (H4): 4.13 µM | IC50 (KYSE-450): 17.7 µM
